Format in all cases: biochemical
For one assay, the target named is T1, α-Glucosidase (rice) (Oryza sativa subsp. japonica, UniProt Q653V7).
T1 construct: purchased Sigma-Aldrich Co
Kind of assay: Glycosidase inhibition: α-glucosidase (rice). From the text: (§1) The enzymes α-glucosidase (from yeast, rice), β-glucosidase (from almonds, bovine liver), α-galactosidase (from coffee beans), β-galactosidase (from bovine liver), α-mannosidase (from jack beans), β-mannosidase (from snails), α-L-fucosidase (from bovine kidney), α-L-rhamnosidase (from Penicillium decumbens), β-glucuronidases (from Escherichia coli), α,α-trehalase (from porcine kidney), amyloglucosidase (from Aspergillus niger), p-nitrophenyl glycosides, and various disaccharides were purchased from Sigma-Aldrich Co. Brush border membranes were prepared from the rat small intestine according to the method of Kessler et al., and were assayed at pH 6.8 for rat intestinal maltase using maltose. For rat intestinal glucosidases and porcine kidney trehalase activities, the reaction mixture (0.2 mL) contained 25 mM substrate and the appropriate amount of enzyme, and the incubations were performed for 10 min at 37 °C. The reaction was stopped by heating at 100 °C for 3 min. After centrifugation (600 g; 10 min), 0.035 mL of the resulting reaction mixture were added to 2.1 mL of the Glucose CII-test Wako (Wako Pure Chemical Ind., Osaka, Japan). The absorbance at 505 nm was measured to determine the amount of the released D-glucose. Other glycosidase activities were determined using an appropriate p-nitrophenyl glycoside as substrate at the optimum pH of each enzyme. The reaction mixture (0.2 mL) contained 2 mM of the substrate and the appropriate amount of enzyme. The reaction was stopped by adding 0.4 mL of 400 mM Na2CO3. The released p-nitrophenol was measured spectrometrically at 400 nm.

In another assay the target is Rat intestinal maltase. Kind of assay: Glycosidase inhibition: rat intestinal maltase. The note with it: maltose, pH 6.8.
Excerpt: as §1

For the next assay, the target named is β-Glucosidase (almond). The assay is described as follows: Glycosidase inhibition: β-glucosidase (almond).
Excerpt: as §1

For assay [1], the target named is T2, α-L-Fucosidase (bovine kidney) (Bos taurus, UniProt Q2KIM0).
T2 construct: purchased Sigma-Aldrich Co; host or cells: bovine kidney
T2 sequence (Q2KIM0 23-468): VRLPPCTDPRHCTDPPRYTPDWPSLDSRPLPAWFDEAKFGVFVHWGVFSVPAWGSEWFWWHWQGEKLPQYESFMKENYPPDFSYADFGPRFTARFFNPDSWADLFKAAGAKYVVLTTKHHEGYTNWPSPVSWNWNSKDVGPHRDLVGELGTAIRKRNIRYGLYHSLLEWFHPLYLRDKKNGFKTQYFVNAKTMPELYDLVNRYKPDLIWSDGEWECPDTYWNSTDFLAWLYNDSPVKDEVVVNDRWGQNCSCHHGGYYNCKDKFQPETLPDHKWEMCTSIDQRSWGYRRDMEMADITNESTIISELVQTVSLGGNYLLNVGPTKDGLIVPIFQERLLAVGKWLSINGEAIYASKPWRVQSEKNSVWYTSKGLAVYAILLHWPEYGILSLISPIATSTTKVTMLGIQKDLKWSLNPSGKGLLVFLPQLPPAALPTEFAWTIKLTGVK
Kind of assay: Glycosidase inhibition: α-L-fucosidase (bovine kidney). To be noted: α-L-fucosidase, bovine kidney.
Excerpt: as §1

The target of assay [2] is T3, Lactase (β-Galactosidase) (Rattus norvegicus, UniProt Q02401).
T3 construct: Brush border membranes were prepared from the rat small intestine; from tissue; host or cells: rat small intestine brush border membranes (inferred)
T3 sequence (Q02401 868-1928): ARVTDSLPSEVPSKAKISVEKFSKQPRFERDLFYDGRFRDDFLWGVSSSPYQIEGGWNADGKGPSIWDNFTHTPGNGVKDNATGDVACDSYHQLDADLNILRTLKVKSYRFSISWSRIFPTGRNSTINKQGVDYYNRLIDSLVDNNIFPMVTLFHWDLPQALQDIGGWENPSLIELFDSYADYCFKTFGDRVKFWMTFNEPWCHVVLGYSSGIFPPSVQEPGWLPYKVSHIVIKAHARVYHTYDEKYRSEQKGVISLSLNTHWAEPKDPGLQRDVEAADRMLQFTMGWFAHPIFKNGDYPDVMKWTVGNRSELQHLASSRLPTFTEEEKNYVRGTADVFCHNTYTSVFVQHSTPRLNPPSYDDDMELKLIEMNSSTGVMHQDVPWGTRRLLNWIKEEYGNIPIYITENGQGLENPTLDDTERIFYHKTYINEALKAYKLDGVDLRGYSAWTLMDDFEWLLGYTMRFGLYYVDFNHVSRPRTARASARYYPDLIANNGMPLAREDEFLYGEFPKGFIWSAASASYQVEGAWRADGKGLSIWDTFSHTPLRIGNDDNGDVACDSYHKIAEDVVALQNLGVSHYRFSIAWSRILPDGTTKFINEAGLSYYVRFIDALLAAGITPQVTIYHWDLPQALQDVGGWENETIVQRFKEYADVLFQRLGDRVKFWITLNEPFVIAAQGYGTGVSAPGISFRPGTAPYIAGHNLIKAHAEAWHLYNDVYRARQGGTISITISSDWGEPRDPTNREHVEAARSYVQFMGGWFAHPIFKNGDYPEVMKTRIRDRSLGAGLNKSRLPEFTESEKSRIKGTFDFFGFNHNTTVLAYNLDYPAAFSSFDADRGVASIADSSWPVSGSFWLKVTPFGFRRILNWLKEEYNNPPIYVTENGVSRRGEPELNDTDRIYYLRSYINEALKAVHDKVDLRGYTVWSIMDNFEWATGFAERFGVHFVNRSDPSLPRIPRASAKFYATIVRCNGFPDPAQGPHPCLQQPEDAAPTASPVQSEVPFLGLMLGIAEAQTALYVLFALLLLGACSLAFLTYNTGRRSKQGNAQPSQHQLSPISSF
Kind of assay: Glycosidase inhibition: lactase. To be noted: lactase.
Excerpt: as §1

A further assay has as its target T4, α-Glucosidase (yeast) (Saccharomyces cerevisiae, UniProt P53341).
T4 construct: purchased Sigma-Aldrich Co
Kind of assay: Glycosidase inhibition: α-glucosidase (yeast).
Excerpt: as §1

The target in a further assay is β-Mannosidase (snail). Kind of assay: Glycosidase inhibition: β-mannosidase (snail).
Excerpt: as §1

Assay [3] concerns the target T5, α-Galactosidase (coffee beans) (Coffea arabica, UniProt Q42656).
T5 construct: purchased Sigma-Aldrich Co
Kind of assay: Glycosidase inhibition: α-galactosidase (coffee beans). To be noted: α-galactosidase, coffee beans.
Excerpt: as §1

The next assay has as its target T6, Amyloglucosidase (Aspergillus niger, UniProt P69328).
T6 construct: purchased Sigma-Aldrich Co
The assay is described as follows: Glycosidase inhibition: amyloglucosidase (Aspergillus niger).
Excerpt: as §1

Another assay addresses T7, β-Glucronidase (E.coli) (Escherichia coli, UniProt P05804).
T7 construct: purchased Sigma-Aldrich Co
Kind of assay: Glycosidase inhibition: β-glucuronidase (E. coli).
Excerpt: as §1

Bounds are passed on as bounds.

T4 sequence (P53341 whole entry): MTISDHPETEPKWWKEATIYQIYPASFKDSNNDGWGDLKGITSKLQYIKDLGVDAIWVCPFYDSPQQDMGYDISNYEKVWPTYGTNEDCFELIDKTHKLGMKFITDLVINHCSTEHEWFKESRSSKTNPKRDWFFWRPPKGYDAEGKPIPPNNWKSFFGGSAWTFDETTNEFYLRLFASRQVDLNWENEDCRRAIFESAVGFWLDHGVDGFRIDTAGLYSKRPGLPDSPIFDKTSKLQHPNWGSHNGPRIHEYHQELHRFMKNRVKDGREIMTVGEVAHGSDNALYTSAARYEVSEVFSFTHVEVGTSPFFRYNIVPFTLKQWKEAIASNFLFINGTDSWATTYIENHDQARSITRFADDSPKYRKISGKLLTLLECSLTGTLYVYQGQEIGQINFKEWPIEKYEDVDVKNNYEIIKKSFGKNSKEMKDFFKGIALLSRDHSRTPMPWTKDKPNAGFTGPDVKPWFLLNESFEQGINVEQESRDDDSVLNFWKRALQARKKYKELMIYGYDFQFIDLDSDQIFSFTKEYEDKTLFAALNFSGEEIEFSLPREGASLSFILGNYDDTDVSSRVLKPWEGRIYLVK
T1 sequence (Q653V7 34-885): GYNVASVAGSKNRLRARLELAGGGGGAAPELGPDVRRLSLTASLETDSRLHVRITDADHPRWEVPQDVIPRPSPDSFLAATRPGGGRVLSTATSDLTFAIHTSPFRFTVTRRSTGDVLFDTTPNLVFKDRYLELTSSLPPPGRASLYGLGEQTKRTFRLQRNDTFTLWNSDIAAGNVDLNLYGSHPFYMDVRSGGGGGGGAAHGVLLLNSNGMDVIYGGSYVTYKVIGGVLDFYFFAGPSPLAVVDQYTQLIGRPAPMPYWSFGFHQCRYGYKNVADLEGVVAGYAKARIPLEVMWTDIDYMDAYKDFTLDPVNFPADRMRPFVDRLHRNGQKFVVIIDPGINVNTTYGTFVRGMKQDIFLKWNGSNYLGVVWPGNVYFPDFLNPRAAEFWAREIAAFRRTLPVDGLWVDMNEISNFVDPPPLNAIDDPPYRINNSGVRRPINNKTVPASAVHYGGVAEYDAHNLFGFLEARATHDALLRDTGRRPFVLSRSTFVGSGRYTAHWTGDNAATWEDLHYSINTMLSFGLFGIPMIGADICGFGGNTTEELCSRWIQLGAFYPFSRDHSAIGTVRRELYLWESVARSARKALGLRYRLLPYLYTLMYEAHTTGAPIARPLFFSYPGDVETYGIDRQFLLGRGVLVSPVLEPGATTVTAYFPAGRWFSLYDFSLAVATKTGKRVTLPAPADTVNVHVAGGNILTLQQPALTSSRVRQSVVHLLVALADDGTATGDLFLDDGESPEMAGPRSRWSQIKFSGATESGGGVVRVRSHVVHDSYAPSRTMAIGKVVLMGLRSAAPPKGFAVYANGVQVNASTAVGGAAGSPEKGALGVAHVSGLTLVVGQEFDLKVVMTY
T7 sequence (P05804 whole entry): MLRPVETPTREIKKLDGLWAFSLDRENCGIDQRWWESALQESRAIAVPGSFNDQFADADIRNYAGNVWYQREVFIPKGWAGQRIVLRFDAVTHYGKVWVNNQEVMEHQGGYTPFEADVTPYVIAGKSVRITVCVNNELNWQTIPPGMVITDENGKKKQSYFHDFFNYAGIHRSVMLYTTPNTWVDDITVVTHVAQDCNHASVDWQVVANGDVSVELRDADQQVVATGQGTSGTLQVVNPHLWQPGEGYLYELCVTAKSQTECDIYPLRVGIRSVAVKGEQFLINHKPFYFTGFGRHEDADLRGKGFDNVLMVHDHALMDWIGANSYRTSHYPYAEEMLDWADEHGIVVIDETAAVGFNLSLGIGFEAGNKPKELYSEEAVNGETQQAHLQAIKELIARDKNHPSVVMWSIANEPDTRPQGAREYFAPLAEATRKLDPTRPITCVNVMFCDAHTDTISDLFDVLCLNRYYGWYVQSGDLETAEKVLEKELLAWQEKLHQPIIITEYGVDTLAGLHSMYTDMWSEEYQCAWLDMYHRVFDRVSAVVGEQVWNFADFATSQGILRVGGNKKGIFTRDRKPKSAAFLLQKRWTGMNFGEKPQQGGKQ
T6 sequence (P69328 25-640): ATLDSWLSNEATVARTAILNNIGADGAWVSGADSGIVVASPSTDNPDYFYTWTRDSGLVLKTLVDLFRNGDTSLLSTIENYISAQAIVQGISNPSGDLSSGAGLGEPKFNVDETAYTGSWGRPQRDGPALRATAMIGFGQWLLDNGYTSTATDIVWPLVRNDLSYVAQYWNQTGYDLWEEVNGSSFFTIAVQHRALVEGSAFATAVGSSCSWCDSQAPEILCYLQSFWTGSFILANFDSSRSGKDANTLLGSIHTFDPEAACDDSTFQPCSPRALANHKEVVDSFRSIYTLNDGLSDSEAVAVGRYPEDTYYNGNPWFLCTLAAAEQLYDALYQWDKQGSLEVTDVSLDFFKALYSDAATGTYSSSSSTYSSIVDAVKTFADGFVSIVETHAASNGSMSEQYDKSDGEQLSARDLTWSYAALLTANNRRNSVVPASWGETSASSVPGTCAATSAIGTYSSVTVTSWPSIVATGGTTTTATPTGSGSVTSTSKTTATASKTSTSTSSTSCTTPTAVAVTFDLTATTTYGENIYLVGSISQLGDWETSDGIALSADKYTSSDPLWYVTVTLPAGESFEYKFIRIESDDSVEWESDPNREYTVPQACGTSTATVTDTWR
T5 sequence (Q42656 16-378): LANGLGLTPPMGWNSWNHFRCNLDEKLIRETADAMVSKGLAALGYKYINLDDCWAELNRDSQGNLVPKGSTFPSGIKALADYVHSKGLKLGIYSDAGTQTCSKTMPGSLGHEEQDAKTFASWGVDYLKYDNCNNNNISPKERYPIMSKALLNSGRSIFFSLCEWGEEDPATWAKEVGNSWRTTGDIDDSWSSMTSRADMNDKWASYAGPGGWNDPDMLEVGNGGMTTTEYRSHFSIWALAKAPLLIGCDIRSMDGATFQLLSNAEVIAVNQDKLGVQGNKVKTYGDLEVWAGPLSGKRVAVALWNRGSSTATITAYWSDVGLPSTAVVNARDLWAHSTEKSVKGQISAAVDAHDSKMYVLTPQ

Broadly, the IC50 is the point on the concentration scale where inhibition reaches its midpoint. Read a low IC50 as higher potency. With `OCCN1C[C@H](O)[C@@H](O)[C@H](O)[C@H]1CO` [Miglitol, miglitol, reference compound], the IC50 is 0.17 µM against α-Glucosidase (rice); greater than 1000 µM against Rat intestinal maltase; greater than 1000 µM against β-Glucosidase (almond); greater than 1000 µM in assay [1]; greater than 1000 µM in assay [2]; 70 µM against α-Glucosidase (yeast). Moreover, the IC50 (against β-Mannosidase (snail); in [3]; on Amyloglucosidase; on β-Glucronidase (E.coli)) was greater than 1000 µM in each case.

(Values after PMC6631223, “Chain-Branched Polyhydroxylated Octahydro-1H-Indoles as Potential Leads against Lysosomal Storage Diseases” (Pharmaceuticals, 2019).)
